Data on six compounds can be found in PMC10673511, “Design, Synthesis and Bioactivity Evaluation of Heterocycle-Containing Mono- and Bisphosphonic Acid Compounds” (Molecules, 2023).

The subject of data set [1] is Arabidopsis thaliana. Briefly: Arabidopsis growth inhibition assay (24-well plates, green channel pixel value). As to conditions: for EC50 / pest or weed control at 100 µg/mL: Arabidopsis thaliana, 240 h; for EC50: read-out: EC50 against Arabidopsis growth; for pest or weed control at 100 µg/mL: read-out: InR (%) against Arabidopsis.
A further data set deals with Brassica napus L. Briefly: Pre-emergence herbicidal inhibition assay, Petri dish test, BN. As to conditions: for EC50: Brassica napus, 168 h; for Relative activity ratio (BN root) / Relative activity ratio (BN stalk): relative to FOS. The format is in vivo. Here is the method:
(§1) The pre-emergence activity of the compounds against monocot Echinochloa crus-galli (EC) and dicot Brassica napus L. (BN) was evaluated using the standard Petri dish test. The compounds were dissolved in DMF, emulsified with Tween-80 and diluted with water to form stock solutions, each of which was further diluted to a gradient of 100, 50, 25, 10 and 1 mg/L for test. The test solutions were added to Petri dishes lined with a filter paper, on which 10 seeds of EC and BN were placed. After cultured in an intelligent climate chamber with a humidity of 65% at 26 °C for 7 days, the corresponding EC50 values were calculated.

Data set [2] deals with recombinant E. coli DXR (EcDXR) (Escherichia coli, UniProt P45568). Briefly: biochemical. As to conditions: for inhibition at 100 µM: read-out: InR (%) on DXR enzyme.
The test system of data set [3] is Echinochloa crus-galli. Briefly: Post-emergence herbicidal inhibition assay, EC. It is filed as in vivo. As to conditions: for Loss of Weight (%) EC / Visual Evaluation EC: 300 g ai/ha spray, two weeks after treatment; for Loss of Weight (%) EC: fresh weighing. As for the experimental part: (§2) The post-emergence activity of compounds against EC and Amaranthus retroflexus (AR) was determined at a dose of 300 g ai/ha. The model plants initially grow as seedlings, and a few days prior to treatment, five seedlings with similar growth conditions for the plant were transplanted into one pot containing nutrient soil. The test solutions were prepared by dissolving the compounds in water containing DMF and Tween-80 and sprayed when the plant grew to the 1~2 leaf stage. The herbicidal activity was evaluated via visual observation and fresh weighing after two weeks of treatment.

A further data set has as its system Amaranthus retroflexus. Put plainly: Post-emergence herbicidal inhibition assay, AR. As to conditions: 300 g ai/ha spray, two weeks after treatment; for Loss of Weight (%) AR: fresh weighing. It is filed as in vivo. Here is the method:
as §2

Data set [4] deals with Echinochloa crus-galli. Briefly: Pre-emergence herbicidal inhibition assay, Petri dish test, EC. The format is in vivo. Conditions: for EC50: Echinochloa crus-galli, 168 h; for Relative activity ratio (EC root) / Relative activity ratio (EC stalk): relative to FOS. As for the experimental part:
as §1

For data set [5], the system named is Arabidopsis thaliana. Put plainly: DMAPP rescue on Arabidopsis. The format is in vivo. As to conditions: FOS 40 mg/L; for rescue of developmental arrest and bleaching by DMAPP (change of pixel values): 13e 20 mg/L, t-test. Here is the method:
The DMAPP rescue on Arabidopsis was conducted using the afore-mentioned culture conditions. […] To one of the two species in each group, an additional 150 μg of DMAPP (Aladdin) was added. After 10 days of cultivation, the green channel pixel values of Arabidopsis in each well were measured. A two-tailed paired Student’s t-test was used to compare the two species within the same group, and p < 0.05 indicates a statistically significant difference.

For a further data set, the system named is MtDXR. Also noted: method as in PMID 21824775. Conditions: cited from earlier work.
Where [6] appears, read: root, 7 days, read-out: EC50 BN Root.
[7] abbreviates: stalk, 7 days, read-out: EC50 BN Stalk.
The mark [8] stands for this setting: root, 7 days, read-out: EC50 EC Root.
Where [9] appears, read: stalk, 7 days, read-out: EC50 EC Stalk.

Molecules are shown by their SMILES. Converted amounts (≈) assume the structure as drawn. Where two headings read alike, the source gives them in different places. Where only a bound is given, the exact number is not on record here.

recombinant E. coli DXR (EcDXR), sequence (P45568 whole entry): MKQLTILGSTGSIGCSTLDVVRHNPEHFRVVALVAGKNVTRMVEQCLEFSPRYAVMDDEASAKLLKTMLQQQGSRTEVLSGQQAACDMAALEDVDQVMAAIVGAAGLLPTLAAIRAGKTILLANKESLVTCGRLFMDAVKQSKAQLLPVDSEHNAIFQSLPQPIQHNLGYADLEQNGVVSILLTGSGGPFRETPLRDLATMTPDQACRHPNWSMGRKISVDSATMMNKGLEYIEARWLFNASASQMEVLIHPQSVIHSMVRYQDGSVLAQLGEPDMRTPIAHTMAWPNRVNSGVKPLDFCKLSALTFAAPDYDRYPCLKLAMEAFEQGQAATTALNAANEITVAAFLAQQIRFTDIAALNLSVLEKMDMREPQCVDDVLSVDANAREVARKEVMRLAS

In general, EC50 refers to the concentration that produces a half-maximal response. On to `Cc1onc(O)c1CCP(=O)(O)O` [Compound 6a], for which, in the data set on Arabidopsis thaliana [1], the EC50 was found to be 28.6 ± 3.9 µg/mL (≈ 138 µM) and the pest or weed control at 100 µg/mL is 90.4%. In addition, the EC50 with Brassica napus L. (read-out: EC50 BN Root) turned out to be 17.3 µg/mL (≈ 83.5 µM). Also, the EC50 in the data set on Brassica napus L. (read-out: EC50 BN Stalk) is 10.5 µg/mL (≈ 50.7 µM). Moreover, in the data set with Brassica napus L., the “Relative activity ratio (BN root)” value is recorded as 2.0 fold and the “Relative activity ratio (BN stalk)” value is given as 3.1 fold. For the same compound, in [2], the inhibition at 100 µM amounted to 15.8%. Further, in the data set on Echinochloa crus-galli [3], the “Loss of Weight (%) EC” value stood at 30.8% and the “Visual Evaluation EC” value is “+ (“+”: ≥20%)”. Also, in the data set with Amaranthus retroflexus, the “Loss of Weight (%) AR” value is reported as 35.6% and the “Visual Evaluation AR” value is given as “+ (“+”: ≥20%)”. Moreover, in the data set with Echinochloa crus-galli [4] (read-out: EC50 EC Root), the concentration for a half-maximal effect (EC50) was determined as 24 µg/mL (≈ 116 µM). Also, the EC50 in the data set with Echinochloa crus-galli [4] (read-out: EC50 EC Stalk) came out at 18.9 µg/mL (≈ 91.3 µM). In addition, in the data set on Echinochloa crus-galli [4], the “Relative activity ratio (EC root)” value is recorded as 1.7 fold and the “Relative activity ratio (EC stalk)” value worked out at 2.0 fold.
As a reminder, the IC50 is the concentration that gives 50% inhibition. Take `Cc1onc(O)c1CC(P(=O)(O)O)P(=O)(O)O` [Compound 13a]: in the data set with Arabidopsis thaliana [1], the EC50 came out at 21.6 ± 3.8 µg/mL (≈ 75.2 µM) and the pest or weed control at 100 µg/mL came out at 100%. Moreover, the EC50 with Brassica napus L. (setting [6]) was determined as 26.9 µg/mL (≈ 93.7 µM). The EC50 with Brassica napus L. (setting [7]) came out at 8.5 µg/mL (≈ 29.6 µM). Further, in the data set with Brassica napus L., the “Relative activity ratio (BN root)” value came to 1.3 fold and the “Relative activity ratio (BN stalk)” value turned out to be 3.9 fold. Besides, in data set [2], the IC50 was found to be 77.9 µM and the inhibition at 100 µM was found to be 60.2%. For the same compound, in the data set with Echinochloa crus-galli [3], the “Loss of Weight (%) EC” value worked out at 35.8% and the “Visual Evaluation EC” value is “+ (“+”: ≥20%)”. Moreover, in the data set on Amaranthus retroflexus, the “Loss of Weight (%) AR” value is 52.3% and the “Visual Evaluation AR” value is recorded as “++ (“++”: ≥40%)”. In addition, the EC50 with Echinochloa crus-galli [4] (setting [8]) is 27.1 µg/mL (≈ 94.4 µM). Moreover, in the data set with Echinochloa crus-galli [4] (setting [9]), the EC50 is 10.2 µg/mL (≈ 35.5 µM). In the data set on Echinochloa crus-galli [4], the “Relative activity ratio (EC root)” value was found to be 1.5 fold and the “Relative activity ratio (EC stalk)” value stood at 3.8 fold.
With `CC(C)c1onc(O)c1CC(P(=O)(O)O)P(=O)(O)O` [Compound 13d], in the data set on Arabidopsis thaliana [1], the EC50 is 23.1 ± 1.9 µg/mL (≈ 73.3 µM) and the pest or weed control at 100 µg/mL came out at 93.2%. In addition, the EC50 with Brassica napus L. (setting [6]) worked out at 25.2 µg/mL (≈ 80 µM). The EC50 with Brassica napus L. (setting [7]) worked out at 11 µg/mL (≈ 34.9 µM). In the data set with Brassica napus L., the “Relative activity ratio (BN root)” value stood at 1.4 fold and the “Relative activity ratio (BN stalk)” value stood at 3.0 fold. Further, the inhibition at 100 µM in data set [2] turned out to be 14%. Moreover, in the data set on Echinochloa crus-galli [3], the “Loss of Weight (%) EC” value was 34.9% and the “Visual Evaluation EC” value was “+ (“+”: ≥20%)”. In the data set with Amaranthus retroflexus, the “Loss of Weight (%) AR” value was 45.7% and the “Visual Evaluation AR” value was “++ (“++”: ≥40%)”. Also, the EC50 in the data set with Echinochloa crus-galli [4] (setting [8]) is 27.2 µg/mL (≈ 86.3 µM). The EC50 with Echinochloa crus-galli [4] (setting [9]) turned out to be 13.5 µg/mL (≈ 42.8 µM). Moreover, in the data set on Echinochloa crus-galli [4], the “Relative activity ratio (EC root)” value worked out at 1.5 fold and the “Relative activity ratio (EC stalk)” value came to 2.8 fold.
For `O=P(O)(O)C(Cc1c(O)noc1C(F)(F)F)P(=O)(O)O` [Compound 13e], in the data set with Arabidopsis thaliana [1], the EC50 was determined as 7.8 ± 1.2 µg/mL (≈ 22.9 µM) and the pest or weed control at 100 µg/mL is 100%. Besides, in the data set on Arabidopsis thaliana [1] (from EC50 values), the “fold inhibitory activity on Arabidopsis relative to FOS” value is 3.7 fold. Also, the EC50 in the data set with Brassica napus L. (setting [6]) is 10.7 µg/mL (≈ 31.4 µM). Besides, the concentration giving a half-maximal response (EC50) in the data set on Brassica napus L. (setting [7]) came out at 2.3 µg/mL (≈ 6.74 µM). In the data set with Brassica napus L., the “Relative activity ratio (BN root)” value is recorded as 3.2 fold and the “Relative activity ratio (BN stalk)” value worked out at 14.3 fold. Besides, the “rescue of developmental arrest and bleaching by DMAPP (change of pixel values)” value in the data set with Arabidopsis thaliana [5] (DMAPP 150 mg/L) is on record as “did not show a significant increase”. Moreover, the inhibition at 100 µM in [2] came out at 54.9%. In addition, in the data set with Echinochloa crus-galli [3], the “Loss of Weight (%) EC” value is 53.5% and the “Visual Evaluation EC” value is recorded as “++ (“++”: ≥40%)”. For the same compound, in the data set on Echinochloa crus-galli [3] (post-emergence, 300 g ai/ha), the “fold more active than FOS, inhibition rate on EC via fresh weighing” value is 1.0 fold. Besides, in the data set with Amaranthus retroflexus, the “Loss of Weight (%) AR” value turned out to be 70.3% and the “Visual Evaluation AR” value is reported as “+++ (“+++”: ≥60%)”. In the data set with Echinochloa crus-galli [4] (setting [8]), the EC50 came to 7.4 µg/mL (≈ 21.7 µM). Moreover, the concentration for a half-maximal effect (EC50) in the data set with Echinochloa crus-galli [4] (setting [9]) is 4.1 µg/mL (≈ 12 µM). In addition, in the data set with Echinochloa crus-galli [4], the “Relative activity ratio (EC root)” value is recorded as 5.4 fold and the “Relative activity ratio (EC stalk)” value was determined as 9.4 fold.
By melting point is commonly meant the temperature of the solid-liquid transition. As for `CC1(C)CON(CCCC(P(=O)(O)O)P(=O)(O)O)C1=O` [Compound 20], the melting point is > 250 °C. In the data set on Arabidopsis thaliana [1], the EC50 was > 100 µg/mL and the pest or weed control at 100 µg/mL was 47.9%. Further, in the data set on Brassica napus L. (setting [6]), the EC50 was found to be 34.6 µg/mL (≈ 104 µM). In addition, the EC50 in the data set with Brassica napus L. (setting [7]) came to 8.2 µg/mL (≈ 24.8 µM). For the same compound, in the data set with Brassica napus L., the “Relative activity ratio (BN root)” value is 1.0 fold and the “Relative activity ratio (BN stalk)” value is listed as 4.0 fold. The inhibition at 100 µM in [2] stood at 29.5%. Besides, in the data set with Echinochloa crus-galli [3], the “Loss of Weight (%) EC” value was determined as 22.9% and the “Visual Evaluation EC” value is listed as “+ (“+”: ≥20%)”. In the data set with Amaranthus retroflexus, the “Loss of Weight (%) AR” value amounted to 23.6% and the “Visual Evaluation AR” value was “+ (“+”: ≥20%)”. In the data set with Echinochloa crus-galli [4] (setting [8]), the EC50 came to 40 µg/mL (≈ 121 µM). Further, the EC50 in the data set on Echinochloa crus-galli [4] (setting [9]) is 25.2 µg/mL (≈ 76.1 µM). Moreover, in the data set with Echinochloa crus-galli [4], the “Relative activity ratio (EC root)” value is 1.0 fold and the “Relative activity ratio (EC stalk)” value was determined as 1.5 fold.
`O=CN(O)CCCP(=O)(O)O` [FOS, Fosmidomycin, reference compound]: the EC50 in the data set with Arabidopsis thaliana [1] was 27.5 ± 3.1 µg/mL (≈ 150 µM); in the data set with Brassica napus L. (setting [6]) it was 34.7 µg/mL (≈ 190 µM); in the data set on Brassica napus L. (setting [7]), 32.9 µg/mL (≈ 180 µM); in the data set with Echinochloa crus-galli [4] (setting [8]), 40.2 µg/mL (≈ 220 µM); in the data set with Echinochloa crus-galli [4] (setting [9]) it was 38.4 µg/mL (≈ 210 µM). In the data set with Arabidopsis thaliana [1], the pest or weed control at 100 µg/mL stood at 86.8%. Also, the IC50 with MtDXR was 0.08 µM. The “rescue of developmental arrest and bleaching by DMAPP (change of pixel values)” value in the data set on Arabidopsis thaliana [5] (DMAPP 150 mg/L) is “rescued”. The “green channel pixel value of Arabidopsis images, without DMAPP” value with Arabidopsis thaliana [5] (10 days) is 32,789. Also, the “green channel pixel value of Arabidopsis images, with DMAPP” value with Arabidopsis thaliana [5] (DMAPP 150 mg/L, 10 days) is listed as 54,164. Also, in data set [2], the inhibition at 100 µM turned out to be 98.7%. In the data set on Echinochloa crus-galli [3], the “Loss of Weight (%) EC” value was determined as 27.4%. Also, the “Visual Evaluation EC” value with Echinochloa crus-galli [3] is given as “+ (“+”: ≥20%)”. Moreover, in the data set with Amaranthus retroflexus, the “Loss of Weight (%) AR” value was 31.5%. Also, in the data set with Amaranthus retroflexus, the “Visual Evaluation AR” value was “+ (“+”: ≥20%)”.
